The values below come from publication PMC9267955, “Antidiabetic, Antiglycation, and Antioxidant Activities of Ethanolic Seed Extract of Passiflora edulis and Piceatannol In Vitro” (Molecules, 2022).

Structures are written as SMILES.

The target of the assay is T1, alpha-amylase from porcine pancreas (Sus scrofa, UniProt P00690).
T1 construct: alpha-amylase from porcine pancreas; purchased Sigma-Aldrich (Oakville, ON, Canada); host or cells: porcine pancreas
T1 sequence (P00690 16-511): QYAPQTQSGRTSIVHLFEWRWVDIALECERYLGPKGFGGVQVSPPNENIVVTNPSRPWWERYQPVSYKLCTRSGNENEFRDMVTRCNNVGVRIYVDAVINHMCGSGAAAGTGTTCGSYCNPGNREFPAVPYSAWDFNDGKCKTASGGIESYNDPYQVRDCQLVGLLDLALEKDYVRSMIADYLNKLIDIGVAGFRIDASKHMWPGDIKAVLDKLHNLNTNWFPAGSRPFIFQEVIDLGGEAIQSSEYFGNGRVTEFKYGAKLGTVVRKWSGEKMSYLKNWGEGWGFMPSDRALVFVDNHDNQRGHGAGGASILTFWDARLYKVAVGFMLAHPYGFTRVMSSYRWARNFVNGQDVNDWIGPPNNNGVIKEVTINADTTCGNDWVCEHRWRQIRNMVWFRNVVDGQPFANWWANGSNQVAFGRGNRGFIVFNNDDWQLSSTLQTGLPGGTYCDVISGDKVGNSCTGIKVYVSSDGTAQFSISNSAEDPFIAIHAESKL
Briefly: Alpha-amylase inhibition assay. In kind it is biochemical. The following applies: pancreatic alpha-amylase; mean ± SD, triplicates.

Experimental: Plant extract screening for alpha-amylase inhibition was conducted using the previously described method [46], with some modifications. Except as otherwise indicated, solutions were prepared in 0.01 M potassium phosphate buffer containing sodium chloride (60 mM) and sodium azide (0.02% w/v), pH 6.8. […] After 10 min of incubation at 37 °C, 20 µL of the substrate 2-chloro-4-nitrophenyl-α-D-maltotrioside (5 mM) was added. The mixture was then incubated for 30 min at 37 °C for the reaction to take place. The reaction was terminated by adding 240 µL of trisodium phosphate solution of pH 11 (1% w/v) to stop enzyme activity. […] The positive control was a mixture of enzyme and substrate without inhibitors. Sample control containing sample and buffer was used to eliminate color interference. Buffer was used as blank. The percentage of the alpha-amylase inhibition was calculated as I% = [(Abs0 − Abs1)/Abs0] × 100, where A0 is the absorbance of the positive control subtracted from the blank, Abs 1 is the absorbance in the presence of the extract subtracted from sample control. The IC50 (half-maximal inhibitory concentration) was calculated graphically, using an analytical curve by plotting the concentration versus the inhibition percentage (I%).

Regarding `Oc1cc(O)cc(/C=C/c2ccc(O)c(O)c2)c1` [PIC, 3,3′,4′,5-trans-tetrahydroxystilbene], the half-inhibitory concentration (IC50) was 350 µM.

One may read the IC50 as the concentration that gives 50% inhibition. Low values mean higher potency, high ones lower potency.
